Data as given in patent US7531646B2, “β-D-ribosidase activity indicators with a chromogenic substrate” (priority 2001, dated 2009).
Where a name gives a salt, the structure may show the parent alone.

Assays:
Assay in all cases: Substrate hydrolysis on Columbia agar
Enterococcus faecalis = format: cell-based; conditions: 300 mg/l, 18 hours
Vibrio harveyi = format: cell-based; conditions: Vibrio harveyi NCTC 11346; 300 mg/l; 18 hours
Serratia spp. = format: cell-based; conditions: 300 mg/l, 18 hours
Streptococcus milleri = format: cell-based; conditions: Streptococcus milleri wild; 300 mg/l; 18 hours
A. baumanii = format: cell-based; conditions: A. baumanii ATCC 19606; 300 mg/l; 18 hours
Vibrio alcaligenes = format: cell-based; conditions: Vibrio alcaligenes NCTC 12160; 300 mg/l; 18 hours
Listeria seerigeri = format: cell-based; conditions: Listeria seerigeri PHLS wild; 300 mg/l; 18 hours
E. coli 0157 = format: cell-based; conditions: 300 mg/l, 18 hours
P. vulgaris = format: cell-based; conditions: 300 mg/l, 18 hours
A. lwoffii = format: cell-based; conditions: A. lwoffii ATCC 15309; 300 mg/l; 18 hours
Vibrio furnissii = format: cell-based; conditions: Vibrio furnissii NCTC 11218; 300 mg/l; 18 hours
Vibrio cholerae = format: cell-based; conditions: 300 mg/l, 18 hours
[1] = test system: Streptococcus constellatus; format: cell-based; conditions: Streptococcus constellatus NCTC 11325; 300 mg/l; 18 hours
P. mirabilis = format: cell-based; conditions: 300 mg/l, 18 hours
Enterococcus raffinosis = format: cell-based; conditions: Enterococcus raffinosis NCTC 13192; 300 mg/l; 18 hours
Vibrio metschnikovii = format: cell-based; conditions: Vibrio metschnikovii NCTC 8443; 300 mg/l; 18 hours
Streptococcus sanguis = format: cell-based; conditions: Streptococcus sanguis NCTC 7863; 300 mg/l; 18 hours
C. diphtheriae = format: cell-based, Corynebacterium diphtheriae; conditions: 300 mg/l, 18 hours
Aeromonas caviae = format: cell-based; design: key to the marks not given beside the values; conditions: Aeromonas caviae NCTC 10852; 300 mg/l; 18 hours
Enterococcus durans = format: cell-based; conditions: Enterococcus durans NCTC 8307; 300 mg/l; 18 hours
Salmonella typhimurium = format: cell-based; conditions: Salmonella typhimurium NCTC 74; 300 mg/l; 18 hours
Bacillus licusniforms = format: cell-based; conditions: Bacillus licusniforms NCIMB 9375; 300 mg/l; 18 hours
C. diversus = format: cell-based; conditions: 300 mg/l, 18 hours
P. aeruginosa = format: cell-based; conditions: 300 mg/l, 18 hours
Streptococcus crista = format: cell-based; conditions: Streptococcus crista NCTC 12479; 300 mg/l; 18 hours
Aeromonas hydrophila = format: cell-based; design: key to the marks not given beside the values; conditions: Aeromonas hydrophila NCTC 8049; 300 mg/l; 18 hours
Vibrio anguillarum = format: cell-based; conditions: Vibrio anguillarum NCTC 12159; 300 mg/l; 18 hours
Streptococcus salivarius = format: cell-based; conditions: Streptococcus salivarius NCTC 8618; 300 mg/l; 18 hours
Streptococcus pneumoniae = format: cell-based; conditions: Streptococcus pneumoniae NCTC 7465; 300 mg/l; 18 hours
Enterococcus gellinarum = format: cell-based; conditions: Enterococcus gellinarum NCTC 11428; 300 mg/l; 18 hours
Salmonella typhi = format: cell-based; conditions: Salmonella typhi NCTC 8385; 300 mg/l; 18 hours
Salmonella orthmarchen = format: cell-based; conditions: Salmonella orthmarchen SAX 59; 300 mg/l; 18 hours

Compound: O=c1cc(-c2ccc(OC3OC(CO)C(O)C3O)c(O)c2)oc2ccccc12 [DHF-riboside, 3′,4′-dihydroxyflavone-4′-β-D-ribofuranoside Sodium Salt]
- Hydrolysis by Gram positive organisms (Enterococcus faecalis; Enterococcus faecalis 1): −
- Hydrolysis by Gram positive organisms (Enterococcus faecalis; Enterococcus faecalis 2): +
- Hydrolysis by Gram positive organisms (Enterococcus faecalis; Enterococcus faecalis 3): +
- Hydrolysis by Gram positive organisms (Enterococcus faecalis; Enterococcus faecalis 4): +
- Hydrolysis by Gram positive organisms (Enterococcus faecalis; Enterococcus faecalis 5): +
- Hydrolysis by Gram positive organisms (Enterococcus faecalis; Enterococcus faecalis 6): +
- Hydrolysis by Gram positive organisms (Enterococcus faecalis; Enterococcus faecalis 7): −
- Hydrolysis by Gram negative bacteria (Vibrio harveyi): ++
- Hydrolysis by Gram negative bacteria (Serratia spp.; Serratia spp. SEX 1): ++
- Hydrolysis by Gram negative bacteria (Serratia spp.; Serratia spp. SEX 2): ++
- Hydrolysis by Gram negative bacteria (Serratia spp.; Serratia spp. SEX 3): ++
- Hydrolysis by Gram negative bacteria (Serratia spp.; Serratia spp. SEX 4): ++
- Hydrolysis by Gram positive organisms (Streptococcus milleri): −
- Hydrolysis by Gram negative bacteria (A. baumanii): −
- Hydrolysis by Gram negative bacteria (Vibrio alcaligenes): −
- Hydrolysis by Gram positive organisms (Listeria seerigeri): −
- Hydrolysis by Gram negative bacteria (E. coli 0157; E. coli 0157 NCTC 12079): ++
- Hydrolysis by Gram negative bacteria (E. coli 0157; E. coli 0157 NCTC 12080): ++
- Hydrolysis by Gram negative bacteria (E. coli 0157; E. coli 0157 NCTC 12900): ++
- Hydrolysis by Gram negative bacteria (E. coli 0157; E. coli 0157 NCTC 13125): ++
- Hydrolysis by Gram negative bacteria (E. coli 0157; E. coli 0157 NCTC 13126): ++
- Hydrolysis by Gram negative bacteria (E. coli 0157; E. coli 0157 NCTC 13127): ++
- Hydrolysis by Gram negative bacteria (E. coli 0157; E. coli 0157 NCTC 13128): ++
- Hydrolysis by Gram negative bacteria (P. vulgaris; P. vulgaris PVU 2): −
- Hydrolysis by Gram negative bacteria (P. vulgaris; P. vulgaris PVU 4): −
- Hydrolysis by Gram negative bacteria (P. vulgaris; P. vulgaris PVU 5): −
- Hydrolysis by Gram negative bacteria (A. lwoffii): −
- Hydrolysis by Gram negative bacteria (Vibrio furnissii): −
- Hydrolysis by Gram negative bacteria (Vibrio cholerae; Vibrio cholera NCTC 6585): −
- Hydrolysis by Gram negative bacteria (Vibrio cholerae; Vibrio cholera NCTC 7270): −
- Hydrolysis by Gram negative bacteria (Vibrio cholerae; Vibrio cholera NCTC 8021): −
- Hydrolysis by Gram negative bacteria (Vibrio cholerae; Vibrio cholera NCTC 10732): −
- Hydrolysis by Gram negative bacteria (Vibrio cholerae; Vibrio cholera NCTC 12945): −
- Hydrolysis by Gram negative bacteria (Vibrio cholerae; Vibrio cholerae NCTC 7254): −
- Hydrolysis by Gram negative bacteria (Vibrio cholerae; Vibrio cholerae NCTC 8042): −
- Hydrolysis by Gram negative bacteria (Vibrio cholerae; Vibrio cholerae NCTC 10255): −
- Hydrolysis by Gram negative bacteria (Vibrio cholerae; Vibrio cholerae NCTC 10954): −
- Hydrolysis by Gram positive organisms [1]: −
- Hydrolysis by Gram negative bacteria (P. mirabilis; P. mirabilis NCTC 10975): −
- Hydrolysis by Gram negative bacteria (P. mirabilis; P. mirabilis PMI 1): −
- Hydrolysis by Gram negative bacteria (P. mirabilis; P. mirabilis PMI 2): −
- Hydrolysis by Gram positive organisms (Enterococcus raffinosis): +
- Hydrolysis by Gram negative bacteria (Vibrio metschnikovii): ++
- Hydrolysis by Gram positive organisms (Streptococcus sanguis): −
- Hydrolysis by Gram positive organisms (C. diphtheriae; C. diphtheriae NCTC 3987): +
- Hydrolysis by Gram positive organisms (C. diphtheriae; C. diphtheriae NCTC 10356): ++
- Hydrolysis by Gram positive organisms (C. diphtheriae; C. diphtheriae NCTC 11397): ++
- Hydrolysis by Gram positive organisms (C. diphtheriae; Corynebacterium diphtheria NEQAS): ++
- Hydrolysis by Gram negative bacteria (Aeromonas caviae): ++
- Hydrolysis by Gram positive organisms (Enterococcus durans): −
- Hydrolysis by Gram negative bacteria (Salmonella typhimurium): ++
- Hydrolysis by Gram positive organisms (Bacillus licusniforms): −
- Hydrolysis by Gram negative bacteria (C. diversus; C. diversus CDI 1): ++
- Hydrolysis by Gram negative bacteria (C. diversus; C. diversus CDI 2): ++
- Hydrolysis by Gram negative bacteria (P. aeruginosa; P. aeruginosa ATCC 10145): +
- Hydrolysis by Gram negative bacteria (P. aeruginosa; P. aeruginosa NCTC 10662): +
- Hydrolysis by Gram positive organisms (Streptococcus crista): −
- Hydrolysis by Gram negative bacteria (Aeromonas hydrophila): ++
- Hydrolysis by Gram negative bacteria (Vibrio anguillarum): −
- Hydrolysis by Gram positive organisms (Streptococcus salivarius): −
- Hydrolysis by Gram positive organisms (Streptococcus pneumoniae): −
- Hydrolysis by Gram positive organisms (Enterococcus gellinarum): +
- Hydrolysis by Gram negative bacteria (Salmonella typhi): ++
- Hydrolysis by Gram negative bacteria (Salmonella orthmarchen): ++
